Reference: publication doi:10.1101/2025.04.14.25325787v4 (medrxiv, 2025)

Molecular target: EGFR kinase domain (Homo sapiens, UniProt P00533)
Assay: SPR
Format: binding

EGFR kinase domain, sequence (P00533 704-1016): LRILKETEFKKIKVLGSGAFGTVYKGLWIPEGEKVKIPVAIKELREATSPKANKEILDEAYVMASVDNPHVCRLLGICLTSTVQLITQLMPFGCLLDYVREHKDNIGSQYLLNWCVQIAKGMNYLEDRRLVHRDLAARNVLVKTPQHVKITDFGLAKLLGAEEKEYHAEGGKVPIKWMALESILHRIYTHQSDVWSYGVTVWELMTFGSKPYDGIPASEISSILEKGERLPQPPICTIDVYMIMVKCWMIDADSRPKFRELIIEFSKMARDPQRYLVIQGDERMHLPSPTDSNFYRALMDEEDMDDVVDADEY

Kd: 19.6 µM
SMILES: COc1ccc(CCn2c(=O)c3cc4c(cc3c3ccccc32)OCO4)cc1 [Z5, ZYH005]
